Measurements published in patent publication US20070155764A1, “NOVEL SUBSTITUTED PYRIMIDINYLOXY UREAS USEFUL AS INHIBITORS OF PROTEIN KINASES” (KALYPSYS, INC., priority 2005, published 2007).

Tests used:
Assay type in all cases: biochemical
VEGFR2 kinase = biological target: T1, VEGFR2 kinase (Homo sapiens, UniProt P35968); assay: In vitro VEGFR2 kinase assay; conditions: ADP Quest assay, poly Glu:Tyr substrate, 60 μM ATP
T1 construct: purchased Invitrogen Inc PV3660
Procedure: (§1) In vitro vegfr2 and PDGFRβ Kinase Assays
(§2) 2.5 μl of ADP Quest assay buffer (DiscoverX Inc., cat. #90-0071) containing 20 ng VEGFR2 kinase (Invitrogen Inc, cat. #PV3660) or 25 ng PDGFRβ kinase (Invitrogen Inc., cat. #P3082) is dispensed to wells of a 1536 multi-well, black solid plate. 60 nl of 100× concentration of test compound in DMSO is dispensed to the well by passive pin transfer and incubated for 10 minutes at room temperature (approx. 22° C.). 2.5 μl of ADP Quest assay buffer containing 0.25 μg of poly Glu:Tyr (4:1) substrate peptide (Upstate Inc., cat. #12-440) and 60 μM ATP is then dispensed and the kinase reaction allowed to incubate at 30° C. for 2 hours. The assay plates are sealed and maintained in a humidified environment. After the 2 hour incubation, 2 μl of ADP Quest assay reagent A, followed by 2 μl of assay reagent B, is added. After an additional 30 minute incubation at room temperature, fluorescence intensity is measured on a Molecular Devices Aquest multi-mode plate reader or other suitable plate reader (fluorescence excitation filter: 530/25 [Peak (nm)/FWHM passband (nm)]; dichroic beamsplitter: 561 nm longpass; fluorescence emission filter: 580/10 [Peak (nm)/FWHM passband (nm)]. The assay measures the conversion of a non-fluoresecent molecule to fluorescent resorutin, which correlates with kinase activity. Negative control activity is measured with DMSO lacking any test compound. The positive control is [N-(3-trifluoromethyl-4-chlorophenyl)-N′-(4-(2-methylcarbamoyl-pyridin-4-yl)oxyphenyl)urea], aka Bay 43-9006. Efficacy is measured as a percentage of positive control activity.

[1] = biological target: T2, human B-Raf protein kinase (Homo sapiens, UniProt P15056); assay: In vitro B-Raf/Mek1 composite kinase assay; conditions: recombinant GST-tagged human B-Raf (Δ1-415) with inactive Mek1, 2 μM ATP
T2 construct: GST (N); purchased Upstate Inc. 14-530 (B-Raf); 14-420 (Mek1)
T2 sequence (P15056 416-766): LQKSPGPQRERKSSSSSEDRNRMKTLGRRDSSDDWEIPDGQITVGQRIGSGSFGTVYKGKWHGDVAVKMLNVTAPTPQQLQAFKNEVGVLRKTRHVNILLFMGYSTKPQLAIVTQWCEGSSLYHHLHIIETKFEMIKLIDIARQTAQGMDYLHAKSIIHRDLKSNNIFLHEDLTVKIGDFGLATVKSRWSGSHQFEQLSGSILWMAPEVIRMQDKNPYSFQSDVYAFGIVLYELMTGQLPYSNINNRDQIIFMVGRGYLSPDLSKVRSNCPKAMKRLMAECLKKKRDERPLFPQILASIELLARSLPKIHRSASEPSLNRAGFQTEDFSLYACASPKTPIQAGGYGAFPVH
Procedure: In Vitro B-Raf/Mek1 Composite Kinase Assay
2.5 μl of B-Raf kinase buffer (20 mM MOPS [pH 7.2], 25 mM sodium glycerophosphate, 2 mM EGTA [pH 8.0], 1 mM sodium orthovanadate, 1 mM dithiothreitol, 10 mM MgCl2, 0.03% Brij-35, 0.3 mg/ml bovine serum albumin) containing 1 ng of recombinant, N-terminal GST-tagged human B-Raf protein kinase (Δ1-415, Upstate Inc., cat. #14-530) is dispensed to wells of a 1536 multi-well white solid plate. 60 nl of 100× concentration of test compound in DMSO is dispensed to the well by passive pin transfer and incubated for 15 minutes at room temperature (approx. 22° C.). […] The assay plates are sealed and maintained in a humidified environment. After 2 hours, 2.5 μl of PKLight protein kinase assay reagent (Cambrex, cat. #LT07-501) is dispensed. After an additional 5 minute incubation at room temperature, luminescence activity is measured on a Molecular Devices Analyst multi-mode plate reader or other suitable plate reader. Kinase inhibition results in less ATP depletion, and therefore increased luminescence signal. Negative control activity is measured with DMSO lacking any test compound. The positive control is [N-(3-trifluoromethyl-4-chlorophenyl)-N′-(4-(2-methylcarbamoyl-pyridin-4-yl)oxyphenyl)urea], aka Bay 43-9006. Efficacy is measured as a percentage of positive control activity.

PDGFRβ kinase = biological target: T3, PDGFRβ kinase (Homo sapiens, UniProt P09619); assay: In vitro PDGFRβ kinase assay; conditions: ADP Quest assay, poly Glu:Tyr substrate, 60 μM ATP
T3 construct: purchased Invitrogen Inc. P3082
T3 sequence (P09619 33-1106): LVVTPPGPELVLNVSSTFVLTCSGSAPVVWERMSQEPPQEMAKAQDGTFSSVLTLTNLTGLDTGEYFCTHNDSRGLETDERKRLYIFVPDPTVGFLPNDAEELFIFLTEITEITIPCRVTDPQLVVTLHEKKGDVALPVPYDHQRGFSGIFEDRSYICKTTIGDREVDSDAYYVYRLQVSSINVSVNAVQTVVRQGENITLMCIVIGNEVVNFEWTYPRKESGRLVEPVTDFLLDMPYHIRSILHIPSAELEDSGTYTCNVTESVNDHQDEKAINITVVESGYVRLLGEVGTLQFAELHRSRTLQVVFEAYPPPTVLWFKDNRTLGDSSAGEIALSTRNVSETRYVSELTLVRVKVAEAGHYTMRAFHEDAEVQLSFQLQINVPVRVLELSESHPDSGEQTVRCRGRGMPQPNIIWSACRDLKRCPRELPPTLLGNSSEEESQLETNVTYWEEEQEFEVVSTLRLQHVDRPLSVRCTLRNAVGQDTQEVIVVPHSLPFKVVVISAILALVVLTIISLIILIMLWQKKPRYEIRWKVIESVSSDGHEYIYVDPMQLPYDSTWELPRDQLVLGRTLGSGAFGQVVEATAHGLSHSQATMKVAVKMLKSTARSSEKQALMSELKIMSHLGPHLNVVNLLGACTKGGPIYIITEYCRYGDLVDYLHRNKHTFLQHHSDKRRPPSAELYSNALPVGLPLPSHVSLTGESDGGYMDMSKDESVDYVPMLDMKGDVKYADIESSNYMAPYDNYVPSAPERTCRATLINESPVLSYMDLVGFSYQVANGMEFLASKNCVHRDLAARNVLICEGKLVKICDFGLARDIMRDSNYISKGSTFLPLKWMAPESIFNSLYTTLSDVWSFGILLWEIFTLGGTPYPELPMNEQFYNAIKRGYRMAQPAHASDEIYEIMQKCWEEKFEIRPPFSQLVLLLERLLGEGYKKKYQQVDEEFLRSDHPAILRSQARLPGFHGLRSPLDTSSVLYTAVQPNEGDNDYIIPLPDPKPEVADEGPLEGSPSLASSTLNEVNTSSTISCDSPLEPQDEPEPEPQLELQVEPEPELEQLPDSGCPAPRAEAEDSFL
Procedure: as §1, §2

T1 sequence (P35968 20-1356): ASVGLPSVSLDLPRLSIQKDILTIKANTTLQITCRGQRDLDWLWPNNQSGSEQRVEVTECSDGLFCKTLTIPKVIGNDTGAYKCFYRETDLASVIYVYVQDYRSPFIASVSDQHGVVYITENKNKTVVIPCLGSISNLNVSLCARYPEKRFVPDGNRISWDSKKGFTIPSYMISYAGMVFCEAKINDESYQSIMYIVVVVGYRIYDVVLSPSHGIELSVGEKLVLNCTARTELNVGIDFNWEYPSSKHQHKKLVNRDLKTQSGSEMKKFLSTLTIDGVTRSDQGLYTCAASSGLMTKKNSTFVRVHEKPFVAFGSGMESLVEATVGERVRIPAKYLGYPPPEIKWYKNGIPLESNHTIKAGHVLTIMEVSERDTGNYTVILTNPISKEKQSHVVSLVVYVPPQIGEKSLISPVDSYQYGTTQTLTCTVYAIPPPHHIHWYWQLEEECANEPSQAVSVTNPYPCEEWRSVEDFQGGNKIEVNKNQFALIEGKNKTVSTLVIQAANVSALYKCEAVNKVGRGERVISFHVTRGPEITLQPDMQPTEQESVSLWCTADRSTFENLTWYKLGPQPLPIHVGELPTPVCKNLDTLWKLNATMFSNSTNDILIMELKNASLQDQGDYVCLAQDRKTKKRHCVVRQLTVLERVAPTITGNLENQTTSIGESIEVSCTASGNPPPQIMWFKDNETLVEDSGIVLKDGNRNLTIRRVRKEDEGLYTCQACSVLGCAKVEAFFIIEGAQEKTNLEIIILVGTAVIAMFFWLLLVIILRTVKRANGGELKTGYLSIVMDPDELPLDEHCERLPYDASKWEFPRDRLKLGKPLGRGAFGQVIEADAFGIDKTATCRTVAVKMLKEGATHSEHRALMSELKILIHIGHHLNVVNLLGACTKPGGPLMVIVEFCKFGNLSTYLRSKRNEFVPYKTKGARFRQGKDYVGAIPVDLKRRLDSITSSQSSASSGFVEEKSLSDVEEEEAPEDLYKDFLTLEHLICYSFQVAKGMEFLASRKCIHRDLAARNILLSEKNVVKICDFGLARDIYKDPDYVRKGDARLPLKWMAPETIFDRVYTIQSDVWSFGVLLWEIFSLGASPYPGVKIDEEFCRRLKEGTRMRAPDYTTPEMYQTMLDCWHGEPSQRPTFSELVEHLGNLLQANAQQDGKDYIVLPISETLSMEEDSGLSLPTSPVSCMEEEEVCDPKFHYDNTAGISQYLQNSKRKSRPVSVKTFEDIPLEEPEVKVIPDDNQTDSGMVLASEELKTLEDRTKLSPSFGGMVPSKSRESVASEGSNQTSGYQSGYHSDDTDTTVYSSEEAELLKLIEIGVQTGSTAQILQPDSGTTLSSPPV

Structure (SMILES) | IC50 (VEGFR2 kinase) [µM] | IC50 [1] [µM] | IC50 (PDGFRβ kinase) [µM]
CNC(=O)c1cccc(NC(=O)N(C)c2ccc(Oc3ccnc(C(=O)NC)c3)cc2)c1 [Example 115, 4-{4-[1-Methyl-3-(3-methylcarbamoyl-phenyl)-ureido]-phenoxy}-pyridine-2-carboxylic acid methylamide] | > 10 | ≤ 10 | > 10
O=C(Nc1ccc(Oc2cc(-c3nc(C(F)(F)F)c[nH]3)ncn2)cc1)Nc1ccc(Cl)c(C(F)(F)F)c1 [Example 73, 1-(4-Chloro-3-(trifluoromethyl)phenyl)-3-(4-(6-(4-(trifluoromethyl)-1H-imidazol-2-yl)pyrimidin-4-yloxy)phenyl)urea] | > 10 | ≤ 10 | ≤ 10
O=C(Nc1ccc(Oc2cc(-c3nnco3)ncn2)cc1)Nc1ccc(Cl)c(C(F)(F)F)c1 [Example 8, 1-(4-(6-(1,3,4-Oxadiazol-2-yl)pyrimidin-4-yloxy)phenyl)-3-(4-chloro-3-(trifluoromethyl)phenyl)urea] | ≤ 10 | ≤ 10 | ≤ 10
CN1CCN(Cc2cc(NC(=O)Nc3ccc(Oc4ccnc(-c5nnco5)c4)cc3)cc(C(F)(F)F)c2)CC1 [Example 39, 1-(4-(2-(1,3,4-Oxadiazol-2-yl)pyridin-4-yloxy)phenyl)-3-(3-((4-methylpiperazin-1-yl)methyl)-5-(trifluoromethyl)phenyl)urea] | ≤ 10 | ≤ 10 | ≤ 10
CCN(CC)CCNC(=O)c1cc(NC(=O)Nc2cccc(Oc3cc(-c4nnco4)ncn3)c2)cc(C(F)(F)F)c1 [Example 32, 3-(3-(3-(6-(1,3,4-Oxadiazol-2-yl)pyrimidin-4-yloxy)phenyl)ureido)-N-(2-(diethylamino)ethyl)-5-(trifluoromethyl)benzamide] | ≤ 10 | ≤ 10 | ≤ 10
Cn1nnnc1-c1cc(Oc2cccc(NC(=O)Nc3ccc(Cl)c(C(F)(F)F)c3)c2)ncn1 [Example 21, 1-(4-chloro-3-(trifluoromethyl)phenyl)-3-(3-(6-(1-methyl-1H-tetrazol-5-yl)pyrimidin-4-yloxy)phenyl)urea] | ≤ 10 | ≤ 10 | ≤ 10
Cn1cc(-c2nccc(Oc3ccc(NC(=O)Nc4cccc(C(F)(F)F)c4)c(F)c3)n2)cn1 [Example 93, 1-(2-Fluoro-4-(2-(1-methyl-1H-pyrazol-4-yl)pyrimidin-4-yloxy)phenyl)-3-(3-(trifluoromethyl)phenyl)urea] | ≤ 10 | ≤ 10 | ≤ 10
Cn1cc(-c2cc(Oc3cccc(NC(=O)Nc4ccc(C(F)(F)F)cc4Cl)c3)ncn2)cn1 [Example 96, 1-(2-Chloro-4-(trifluoromethyl)phenyl)-3-(3-(6-(1-methyl-1H-pyrazol-4-yl)pyrimidin-4-yloxy)phenyl)urea] | ≤ 10 | ≤ 10 | ≤ 10
Cc1cc(Oc2ccc(NC(=O)Nc3ccc(Cl)c(C(F)(F)F)c3)cc2)nc(-n2ccnc2)n1 [Example 6, 1-(4-(2-(1H-imidazol-1-yl)-6-methylpyrimidin-4-yloxy)phenyl)-3-(4-chloro-3-(trifluoromethyl)phenyl)urea] | > 10 | ≤ 10 | > 10
CNC(=O)c1cc(Oc2ccc(N(C)C(=O)Nc3cc(OCCOC)cc(C(F)(F)F)c3)cc2)ccn1 [Example 117, 4-(4-{3-[3-(2-Methoxy-ethoxy)-5-trifluoromethyl-phenyl]-1-methyl-ureido}-phenoxy)-pyridine-2-carboxylic acid methylamide] | ≤ 10 | > 10 | ≤ 10
NC(=O)c1coc(-c2cc(Oc3cccc(NC(=O)Nc4ccc(Cl)c(C(F)(F)F)c4)c3)ncn2)n1 [Example 82, 2-(6-(3-(3-(4-Chloro-3-(trifluoromethyl)phenyl)ureido)phenoxy)pyrimidin-4-yl)oxazole-4-carboxamide] | ≤ 10 | ≤ 10 | ≤ 10
O=C(Nc1cccc(Oc2ccnc(-c3nnco3)c2)c1)Nc1cc(C(F)(F)F)c(Cl)cc1OCCN1CCCC1 [Example 37, 1-(3-(2-(1,3,4-Oxadiazol-2-yl)pyridin-4-yloxy)phenyl)-3-(4-chloro-2-(2-(pyrrolidin-1-yl)ethoxy)-5-(trifluoromethyl)phenyl)urea] | ≤ 10 | ≤ 10 | ≤ 10
O=C(Nc1ccc(Oc2cc(-c3nnco3)ncn2)cc1)Nc1cc(C(F)(F)F)c(Cl)cc1OCCN1CCCC1 [Example 31, 1-(4-(6-(1,3,4-Oxadiazol-2-yl)pyrimidin-4-yloxy)phenyl)-3-(4-chloro-2-(2-(pyrrolidin-1-yl)ethoxy)-5-(trifluoromethyl)phenyl)urea] | ≤ 10 | ≤ 10 | ≤ 10
O=C(Nc1ccc(Oc2cc(-c3cnn(CCN4CCOCC4)c3)ncn2)cc1)Nc1ccc(Cl)c(C(F)(F)F)c1 [Example 76, 1-(4-Chloro-3-(trifluoromethyl)phenyl)-3-(4-(6-(1-(2-morpholinoethyl)-1H-pyrazol-4-yl)pyrimidin-4-yloxy)phenyl)urea] | ≤ 10 | ≤ 10 | ≤ 10
O=C(Nc1cccc(Oc2cc(-c3ccn(CCO)n3)ncn2)c1)Nc1ccc(Cl)c(C(F)(F)F)c1 [Example 63, 1-(4-Chloro-3-(trifluoromethyl)phenyl)-3-(3-(6-(1-(2-hydroxyethyl)-1H-pyrazol-3-yl)pyrimidin-4-yloxy)phenyl)urea] | > 10 | ≤ 10 | > 10
O=C(Nc1cccc(Oc2cc(-c3nnco3)ncn2)c1)Nc1ccc(Cl)c(C(F)(F)F)c1 [Example 9, 1-(3-(6-(1,3,4-Oxadiazol-2-yl)pyrimidin-4-yloxy)phenyl)-3-(4-chloro-3-(trifluoromethyl)phenyl)urea] | ≤ 10 | ≤ 10 | ≤ 10
Cn1cc(-c2cc(Oc3ccc(NC(=O)Nc4ccc(Cl)c(C(F)(F)F)c4)cc3)ncn2)cn1 [Example 35, 1-(4-Chloro-3-(trifluoromethyl)phenyl)-3-(4-(6-(1-methyl-1H-pyrazol-4-yl)pyrimidin-4-yloxy)phenyl)urea] | ≤ 10 | ≤ 10 | ≤ 10
CCOC(=O)c1coc(-c2cc(Oc3cccc(NC(=O)Nc4ccc(Cl)c(C(F)(F)F)c4)c3)ncn2)n1 [Example 81, Ethyl 2-(6-(3-(3-(4-chloro-3-(trifluoromethyl)phenyl)ureido)phenoxy)pyrimidin-4-yl)oxazole-4-carboxylate] | ≤ 10 | ≤ 10 | ≤ 10
Cn1cc(-c2cc(Oc3ccc(F)c(NC(=O)Nc4ccc(C(F)(F)F)cc4F)c3)ncn2)cn1 [Example 90, 1-(2-Fluoro-4-(trifluoromethyl)phenyl)-3-(2-fluoro-5-(6-(1-methyl-1H-pyrazol-4-yl)pyrimidin-4-yloxy)phenyl)urea] | ≤ 10 | ≤ 10 | ≤ 10
CN(C(=O)Nc1ccc(Cl)c(C(F)(F)F)c1)c1cccc(Oc2ccnc(-c3nnco3)c2)c1 [Example 111] | > 10 | > 10 | ≤ 10
Cn1cc(-c2cc(Oc3ccc(F)c(NC(=O)Nc4ccc(C(F)(F)F)cc4)c3)ncn2)cn1 [Example 100, 1-(2-Fluoro-5-(6-(1-methyl-1H-pyrazol-4-yl)pyrimidin-4-yloxy)phenyl)-3-(4-(trifluoromethyl)phenyl)urea] | ≤ 10 | ≤ 10 | ≤ 10
O=C(Nc1ccc(Oc2ccnc(-c3nnco3)c2)cc1)Nc1cc(C(F)(F)F)c(Cl)cc1OCCN1CCCC1 [Example 41, 1-(4-(2-(1,3,4-Oxadiazol-2-yl)pyridin-4-yloxy)phenyl)-3-(4-chloro-2-(2-(pyrrolidin-1-yl)ethoxy)-5-(trifluoromethyl)phenyl)urea] | ≤ 10 | ≤ 10 | ≤ 10
